Like-named read-outs stand apart in the source and are kept apart here.
Key:
HTB-54 = assay: cells; assay type: cell-based; details: Homo sapiens; for GI50: read-out: GI50 HTB54; for CC50: read-out: LC50 HTB54; for IC (TGI): read-out: TGI HTB54
Method in brief: (§1)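 MTT cytotoxicity: 1 × 10^4 cells/well in RPMI + 10% FBS exposed to increasing compound concentrations for 48 h at 37 °C, 5% CO2, then MTT for 4 h and formazan dissolved in DMSO. Initial screen at 50 and 10 µM; at least 3 independent experiments in quadruplicate, SEM reported.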

PC-3 = assay: cells; assay type: cell-based; details: Homo sapiens; for GI50: read-out: GI50 PC-3; for LC50: read-out: LC50 PC-3; for IC (TGI): read-out: TGI PC-3
Method in brief: as §1

[1] = MTT cytotoxicity in nonmalignant mammary gland derived cells; assay type: cell-based; details: human
Method in brief: (§2)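 184B5 cells grown in supplemented DMEM/F12, BEAS-2B in RPMI with 10% FBS. 1 × 10^4 cells/well exposed to increasing compound concentrations for 48 h at 37 °C, 5% CO2, then MTT 4 h and formazan dissolved in DMSO. At least 3 independent experiments in quadruplicate; cisplatin as reference.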

184B5 = assay: as above; assay type: cell-based; details: for GI50 / IC (TGI): Homo sapiens; for GI50: read-out: GI50 184B5; for IC (TGI): read-out: TGI 184B5
Method in brief: as §2

[2] = MTT cytotoxicity in nonmalignant bronchial epithelium cells; assay type: cell-based; details: human
Method in brief: as §2

BEAS-2B = assay: as above; assay type: cell-based; details: for GI50 / IC (TGI): Homo sapiens, BEAS-2B, 48 h; for GI50: read-out: GI50 BEAS-2B; for IC (TGI): read-out: TGI BEAS-2B; for Selectivity index (SI) = GI50 (BEAS-2B)/GI50 (HTB-54): lung
Method in brief: as §2

MCF-7 [3] = assay: Autophagy and caspase inhibition assays (wortmannin, Z-VAD-FMK pretreatment); assay type: cell-based, human; details: I.1f 80 µM 72 h, I.2f 30 µM 24 h, II.2d 20 µM 24 h; for Compound-induced cell death after preincubation with wortmannin: 100 nM wortmannin 1 h; for Compound-induced cell death after preincubation with Z-VAD-FMK: 50 µM Z-VAD-FMK 1 h
Method: For autophagy and caspase inhibition assays, cells were pretreated with 100 nM of autophagy inhibitor (wortmannin, Santa Cruz) and 50 µM of pan-caspase inhibitor (Z-VAD-FMK, BD Pharmingen) for 1 h. The cells were treated with the compounds I.2f (30 µM) and II.2d (20 µM) for 24 h and I.1f (80 µM) for 72 h. Samples were processed following the same methodology stated above. DMSO was used as a negative control for both inhibitors.
Apoptosis and autophagy are considered as two recognized pathways for anticancer agents due to their effects on cell survival. In the next step, in order to investigate whether the cell death pathway is related to apoptosis or autophagy, we explored the effect of pre-treated cells with either an autophagy inhibitor (wortmannin) or a pan-caspase inhibitor (Z-VAD-FMK). According to the previous results, determinations were performed after treatment with 80 μM of I.1f for 72 h, 30 μM of I.2f for 24 h and 20 μM of II.2d for 24 h.

MCF-7 [4] = assay: cells; details: Homo sapiens, MCF7, 48 h; for activity at 10 µM: read-out: Cell growth (%) MCF-7; for GI50: read-out: GI50 MCF-7, 48 h, average ± SEM; for CC50: read-out: LC50 MCF-7; for IC (TGI): read-out: TGI MCF-7
CCRF-CEM = assay: cells; details: Homo sapiens, 48 h; for activity at 10 µM: read-out: Cell growth (%) CCRF-CEM; for GI50: read-out: GI50 CCRF-CEM; for CC50: read-out: LC50 CCRF-CEM; for IC (TGI): read-out: TGI CCRF-CEM
HT-29 = assay: cells; details: Homo sapiens, HT-29, 48 h; for activity at 10 µM: read-out: Cell growth (%) HT-29; for GI50: read-out: GI50 HT-29; for CC50: read-out: LC50 HT-29; for IC (TGI): read-out: TGI HT-29
[5] = nonmalignant cells, 48 h, read-out: LC50 184B5
[6] = 184B5, nonmalignant cells, 48 h
[7] = nonmalignant cells, 48 h, read-out: LC50 BEAS-2B

N#C[Se]c1ccc(NC(=O)c2ccc(C(F)(F)F)cc2)cc1 [I.2f]
GI50 (HTB-54; HTB-54, 48 h, average ± SEM): 29.8 ± 1.5 µM
CC50 (HTB-54; HTB-54, 48 h, average ± SEM): 84.4 ± 5.2 µM
IC (TGI) (HTB-54; HTB-54, 48 h, average ± SEM): 57.1 ± 3.3 µM
GI50 (PC-3; PC-3, 48 h, average ± SEM): 28.5 ± 0.7 µM
LC50 (PC-3; PC-3, 48 h, average ± SEM): 77.7 ± 0.6 µM
IC (TGI) (PC-3; PC-3, 48 h, average ± SEM): 53.1 ± 0.6 µM
LC50 (50% lethal concentration) [1, 5]: > 100 µM
GI50 (184B5; [6]): 16.6 µM
IC (TGI) (184B5; [6]): > 100 µM
LC50 (50% lethal concentration) [2, 7]: 73.2 µM
GI50 (BEAS-2B; nonmalignant cells): 20.8 µM
IC (TGI) (BEAS-2B; nonmalignant cells): 47 µM
Selectivity index (SI) = GI50 (BEAS-2B)/GI50 (HTB-54) (BEAS-2B): 0.70
Compound-induced cell death after preincubation with wortmannin (MCF-7 [3]): prevented cell death
Compound-induced cell death after preincubation with Z-VAD-FMK (MCF-7 [3]): did not
activity at 10 µM (MCF-7 [4]): 44.8%
GI50 (MCF-7 [4]): < 1 µM
CC50 (MCF-7 [4]): 42.2 ± 0.8 µM
IC (TGI) (MCF-7 [4]): 6.2 ± 0.4 µM
activity at 10 µM (CCRF-CEM): 54.6%
GI50 (CCRF-CEM): 7.3 ± 0.5 µM
CC50 (CCRF-CEM): > 100 µM
IC (TGI) (CCRF-CEM): > 100 µM
activity at 10 µM (HT-29): 26.7%
GI50 (HT-29): 0.6 ± 0.4 µM
CC50 (HT-29): > 100 µM
IC (TGI) (HT-29): 79.2 ± 0.3 µM

CCOP(=O)(Nc1ccc([Se]C#N)cc1)OCC [II.2d]
GI50 (HTB-54; HTB-54, 48 h): 1.6 ± 0.4 µM
CC50 (HTB-54; HTB-54, 48 h): 4.8 ± 0.2 µM
IC (TGI) (HTB-54; HTB-54, 48 h): 3.2 ± 0.3 µM
GI50 (PC-3; PC-3, 48 h): 1.9 ± 0.1 µM
LC50 (PC-3; PC-3, 48 h): 99.9 ± 9.5 µM
IC (TGI) (PC-3; PC-3, 48 h): 4.4 ± 0.1 µM
CC50 at 48 h [1, 5]: 8.93 µM
GI50 (184B5; 184B5, 48 h): 5.7 µM
IC (TGI) (184B5; 184B5, 48 h): 7.31 µM
Selectivity index (SI) = GI50 (184B5)/GI50 (MCF-7) (184B5; breast): 6.33
LC50 (50% lethal concentration) at 48 h [2, 7]: 8.3 µM
GI50 (BEAS-2B): 4.65 µM
IC (TGI) (BEAS-2B): 6.59 µM
Selectivity index (SI) = GI50 (BEAS-2B)/GI50 (HTB-54) (BEAS-2B): 2.85
Compound-induced cell death after preincubation with wortmannin (MCF-7 [3]): could not prevent cell death
Compound-induced cell death after preincubation with Z-VAD-FMK (MCF-7 [3]): prevented it
activity at 10 µM (MCF-7 [4]): -17.2%
GI50 (MCF-7 [4]): < 1 µM
CC50 (MCF-7 [4]): 8.4 ± 0.1 µM
IC (TGI) (MCF-7 [4]): 4.1 ± 0.1 µM
activity at 10 µM (CCRF-CEM): -87.4%
GI50 (CCRF-CEM): 0.2 µM
CC50 (CCRF-CEM): 0.9 ± 0.1 µM
IC (TGI) (CCRF-CEM): 0.5 µM
activity at 10 µM (HT-29): -63.4%
GI50 (HT-29): 5 ± 0.8 µM
CC50 (HT-29): 9.5 ± 0.4 µM
IC (TGI) (HT-29): 7.3 ± 0.2 µM

O=C(Nc1ccc([Se][Se]c2ccc(NC(=O)c3ccc(C(F)(F)F)cc3)cc2)cc1)c1ccc(C(F)(F)F)cc1 [I.1f]
CC50 (HTB-54; HTB-54, 48 h): 75.4 ± 1.7 µM
GI50 (HTB-54; HTB-54, 48 h, average ± SEM): 25.1 ± 3.1 µM
IC (TGI) (HTB-54; HTB-54, 48 h, average ± SEM): 50.2 ± 2.4 µM
LC50 (PC-3; PC-3, 48 h): 65 ± 0.6 µM
GI50 (PC-3; PC-3, 48 h, average ± SEM): 1.2 ± 1.5 µM
IC (TGI) (PC-3; PC-3, 48 h, average ± SEM): 32.9 ± 3.1 µM
LC50 (50% lethal concentration) at 48 h [1]: 92.3 µM
GI50 (184B5; [6]): 6.59 µM
IC (TGI) (184B5; [6]): 44 µM
LC50 (50% lethal concentration) at 48 h [2]: 72.9 µM
GI50 (BEAS-2B; nonmalignant cells): 10.7 µM
IC (TGI) (BEAS-2B; nonmalignant cells): 41.8 µM
Selectivity index (SI) = GI50 (BEAS-2B)/GI50 (HTB-54) (BEAS-2B): 0.42
Compound-induced cell death after preincubation with wortmannin (MCF-7 [3]): prevented cell death
Compound-induced cell death after preincubation with Z-VAD-FMK (MCF-7 [3]): did not
activity at 10 µM (MCF-7 [4]): 9.1%
CC50 (MCF-7 [4]): 54.6 ± 0.7 µM
IC (TGI) (MCF-7 [4]): 13 ± 0.3 µM
activity at 10 µM (CCRF-CEM): 36.5%
GI50 (CCRF-CEM): 4.7 ± 0.7 µM
CC50 (CCRF-CEM): 79.2 ± 4.1 µM
IC (TGI) (CCRF-CEM): 31.7 ± 1.8 µM
activity at 10 µM (HT-29): -18.4%
GI50 (HT-29): 0.1 µM
CC50 (HT-29): > 100 µM
IC (TGI) (HT-29): 5.7 ± 0.9 µM
